Results as given in ChEMBL document CHEMBL4184252, “Synthesis of novel multivalent fluorescent inhibitors with high affinity to prostate cancer and their biological evaluation” (Bioorg Med Chem Lett, 2018).

Legend:
[1] = Drug distribution in heart of BALB/c nude mouse xenografted with human 22Rv1 cells at 10 nmol, iv measured 1 to 24 hrs after post dose by fluorescence imaging method; assay type: ADME, organism-based; conditions: in vivo
[2] = target: Glutamate carboxypeptidase 2 (Homo sapiens, UniProt Q04609); assay: Inhibition of PSMA in human LNCaP cell lysates incubated for 2 hrs in presence of N-acetylaspartylglutamate by Amplex red glutamic acid/glutamate oxidase assay
Chain of Glutamate carboxypeptidase 2 (Q04609 whole entry): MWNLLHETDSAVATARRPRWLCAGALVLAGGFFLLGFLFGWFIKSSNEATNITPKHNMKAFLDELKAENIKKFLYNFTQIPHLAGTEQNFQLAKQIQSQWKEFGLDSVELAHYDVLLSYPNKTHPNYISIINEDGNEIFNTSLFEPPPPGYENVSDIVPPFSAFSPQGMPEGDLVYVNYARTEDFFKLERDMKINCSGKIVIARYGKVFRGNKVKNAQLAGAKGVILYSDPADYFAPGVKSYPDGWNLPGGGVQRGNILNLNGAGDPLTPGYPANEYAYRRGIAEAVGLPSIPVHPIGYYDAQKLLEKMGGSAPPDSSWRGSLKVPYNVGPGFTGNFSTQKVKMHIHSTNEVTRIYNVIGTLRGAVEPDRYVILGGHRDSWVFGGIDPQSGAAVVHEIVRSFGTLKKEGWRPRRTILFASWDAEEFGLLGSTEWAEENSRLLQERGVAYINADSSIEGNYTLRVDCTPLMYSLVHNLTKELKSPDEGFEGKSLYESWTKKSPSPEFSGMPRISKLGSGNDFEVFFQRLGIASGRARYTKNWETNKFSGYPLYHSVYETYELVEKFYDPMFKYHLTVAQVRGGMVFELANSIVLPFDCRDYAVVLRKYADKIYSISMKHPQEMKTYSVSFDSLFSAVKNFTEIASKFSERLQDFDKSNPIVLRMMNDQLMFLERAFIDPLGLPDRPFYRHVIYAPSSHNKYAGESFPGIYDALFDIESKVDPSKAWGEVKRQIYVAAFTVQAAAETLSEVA

[3] = Drug distribution in lung of BALB/c nude mouse xenografted with human 22Rv1 cells at 10 nmol, iv measured 1 to 24 hrs after post dose by fluorescence imaging method; assay type: ADME, organism-based; conditions: in vivo
[4] = Drug distribution in spleen of BALB/c nude mouse xenografted with human 22Rv1 cells at 10 nmol, iv measured 1 to 24 hrs after post dose by fluorescence imaging method; assay type: ADME, organism-based; conditions: in vivo
[5] = Drug distribution in muscle of BALB/c nude mouse xenografted with human 22Rv1 cells at 10 nmol, iv measured 1 to 24 hrs after post dose by fluorescence imaging method; assay type: ADME, organism-based, Muscle tissue; conditions: in vivo
[6] = Drug distribution in tumor of BALB/c nude mouse xenografted with human 22Rv1 cells at 10 nmol, iv measured 1 to 24 hrs after post dose by fluorescence imaging method; assay type: ADME, organism-based, Neoplasm; conditions: in vivo
[7] = Drug distribution in liver of BALB/c nude mouse xenografted with human 22Rv1 cells at 10 nmol, iv measured 1 to 24 hrs after post dose by fluorescence imaging method; assay type: ADME, organism-based; conditions: in vivo
[8] = Drug distribution in tumor of BALB/c nude mouse xenografted with human 22Rv1 cells at 10 nmol, iv measured 1 to 24 hrs after post dose co-treated with 1 umol DCIBZL by fluorescence imaging method; assay type: ADME, organism-based, Neoplasm; conditions: in vivo
[9] = Drug distribution in liver of BALB/c nude mouse xenografted with human 22Rv1 cells at 10 nmol, iv measured 1 to 24 hrs after post dose co-treated with 1 umol DCIBZL by fluorescence imaging method; assay type: ADME, organism-based; conditions: in vivo

Row | Drug uptake [1] | Ki [2] [nM] | Drug uptake [3] | Drug uptake [4] | Drug uptake [5] | Drug uptake [6] | Drug uptake [7] | Drug uptake [8] | Drug uptake [9] | Compound
1 | Not Active | 0.58 | Not Active | Not Active | Not Active | Active | Active | Not Active | Not Active | CCN1/C(=C/C=C/C=C/C2=[N+](CCCCCC(=O)NCCCC(=O)NCCCC[C@H](NC(=O)N[C@@H](CCC(=O)O)C(=O)O)C(=O)O)c3ccc4c(S(=O)(=O)[O-])cc(S(=O)(=O)O)cc4c3C2(C)C)C(C)(C)c2c1ccc1c(S(=O)(=O)O)cc(S(=O)(=O)O)cc21
2 | Not Active | 0.38 | Not Active | Not Active | Not Active | Active | Active | – | – | CCN1/C(=C/C=C/C=C/C2=[N+](CCCCCC(=O)NCCCN(CC(=O)Nc3ccc(C(=O)NCCCC[C@H](NC(=O)N[C@@H](CCC(=O)O)C(=O)O)C(=O)O)cc3)CC(=O)Nc3ccc(C(=O)NCCCC[C@H](NC(=O)N[C@@H](CCC(=O)O)C(=O)O)C(=O)O)cc3)c3ccc4c(S(=O)(=O)[O-])cc(S(=O)(=O)O)cc4c3C2(C)C)C(C)(C)c2c1ccc1c(S(=O)(=O)O)cc(S(=O)(=O)O)cc21
3 | Not Active | 0.14 | Not Active | Not Active | Not Active | Active | Not Active | Not Active | Not Active | CCN1/C(=C/C=C/C=C/C2=[N+](CCCCCC(=O)NCCCC(=O)N[C@@H](CCC(=O)NCCCC[C@H](NC(=O)N[C@@H](CCC(=O)O)C(=O)O)C(=O)O)C(=O)NCCCC[C@H](NC(=O)N[C@@H](CCC(=O)O)C(=O)O)C(=O)O)c3ccc4c(S(=O)(=O)[O-])cc(S(=O)(=O)O)cc4c3C2(C)C)C(C)(C)c2c1ccc1c(S(=O)(=O)O)cc(S(=O)(=O)O)cc21
